This note sets out measurements from patent US20260125378A2, “Heterocyclic Compounds” (BeOne Medicines I GmbH, priority 2023, published 2026).

Assay [1] concerns the target T1, Full length DGKζ (in-house protein M1-V929) (Homo sapiens, UniProt Q13574).
T1 construct: His (N); TEV site (N); made in house; host or cells: Sf9 insect cells (Bac-to-Bac baculovirus)
In words: Biochemical DGK IC50 assay (ADP-Glo, lipid micelle substrate), DGKζ. Conditions: 1 hour preincubation, 1 hour reaction, room temperature. An outline of the steps:
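Full-length human DGKζ (M1-V929, His-TEV tagged, Sf9 baculovirus-expressed) with DAG/PS lipid micelle substrate in octyl glucoside, at room temperature in 50 mM HEPES, 10 mM MgCl2, 0.01 mM CaCl2 buffer.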
A general note: ADP-Glo turns the ADP formed in a reaction into a luminescent signal.

The target of assay [2] is T2, Full length DGKα (D21-10BG, SignalChem) (Homo sapiens, UniProt P23743).
T2 construct: Full length DGKα (D21-10BG, SignalChem); purchased SignalChem D21-10BG
T2 sequence (P23743 whole entry): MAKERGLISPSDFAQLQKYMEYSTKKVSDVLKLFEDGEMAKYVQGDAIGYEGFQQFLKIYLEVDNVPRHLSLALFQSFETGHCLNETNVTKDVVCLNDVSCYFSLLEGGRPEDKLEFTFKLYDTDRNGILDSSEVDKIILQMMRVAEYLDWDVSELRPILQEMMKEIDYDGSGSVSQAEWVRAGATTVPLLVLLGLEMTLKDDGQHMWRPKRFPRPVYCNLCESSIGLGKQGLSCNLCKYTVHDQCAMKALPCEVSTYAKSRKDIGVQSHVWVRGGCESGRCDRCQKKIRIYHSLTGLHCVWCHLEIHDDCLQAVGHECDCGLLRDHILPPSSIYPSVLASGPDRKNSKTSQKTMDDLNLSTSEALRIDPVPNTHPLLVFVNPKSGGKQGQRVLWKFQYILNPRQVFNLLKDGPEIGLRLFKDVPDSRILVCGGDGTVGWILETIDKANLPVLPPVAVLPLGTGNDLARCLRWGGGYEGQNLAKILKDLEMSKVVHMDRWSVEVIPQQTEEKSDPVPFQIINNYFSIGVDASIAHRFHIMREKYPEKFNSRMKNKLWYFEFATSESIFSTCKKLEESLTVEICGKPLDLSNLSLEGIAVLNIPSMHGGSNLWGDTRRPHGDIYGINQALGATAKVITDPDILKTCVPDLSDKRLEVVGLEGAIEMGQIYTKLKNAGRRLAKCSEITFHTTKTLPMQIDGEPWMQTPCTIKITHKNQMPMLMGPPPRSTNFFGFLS
In words: Biochemical DGK IC50 assay (ADP-Glo, lipid micelle substrate), DGKα. Conditions: 1 hour preincubation, 1 hour reaction, room temperature. An outline of the steps:
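Full-length human DGKα with DAG/PS lipid micelle substrate (in octyl glucoside buffer), reacted 1 h at room temperature in 50 mM HEPES, 10 mM MgCl2, 0.01 mM CaCl2, 0.1 mM Na3VO4, 0.01% BSA, 0.005% Tween-20. ADP formed read by ADP-Glo luminescence; IC50 from inhibition across increasing compound concentrations.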

T1 sequence (Q13574 1-929 isoform Q13574-4): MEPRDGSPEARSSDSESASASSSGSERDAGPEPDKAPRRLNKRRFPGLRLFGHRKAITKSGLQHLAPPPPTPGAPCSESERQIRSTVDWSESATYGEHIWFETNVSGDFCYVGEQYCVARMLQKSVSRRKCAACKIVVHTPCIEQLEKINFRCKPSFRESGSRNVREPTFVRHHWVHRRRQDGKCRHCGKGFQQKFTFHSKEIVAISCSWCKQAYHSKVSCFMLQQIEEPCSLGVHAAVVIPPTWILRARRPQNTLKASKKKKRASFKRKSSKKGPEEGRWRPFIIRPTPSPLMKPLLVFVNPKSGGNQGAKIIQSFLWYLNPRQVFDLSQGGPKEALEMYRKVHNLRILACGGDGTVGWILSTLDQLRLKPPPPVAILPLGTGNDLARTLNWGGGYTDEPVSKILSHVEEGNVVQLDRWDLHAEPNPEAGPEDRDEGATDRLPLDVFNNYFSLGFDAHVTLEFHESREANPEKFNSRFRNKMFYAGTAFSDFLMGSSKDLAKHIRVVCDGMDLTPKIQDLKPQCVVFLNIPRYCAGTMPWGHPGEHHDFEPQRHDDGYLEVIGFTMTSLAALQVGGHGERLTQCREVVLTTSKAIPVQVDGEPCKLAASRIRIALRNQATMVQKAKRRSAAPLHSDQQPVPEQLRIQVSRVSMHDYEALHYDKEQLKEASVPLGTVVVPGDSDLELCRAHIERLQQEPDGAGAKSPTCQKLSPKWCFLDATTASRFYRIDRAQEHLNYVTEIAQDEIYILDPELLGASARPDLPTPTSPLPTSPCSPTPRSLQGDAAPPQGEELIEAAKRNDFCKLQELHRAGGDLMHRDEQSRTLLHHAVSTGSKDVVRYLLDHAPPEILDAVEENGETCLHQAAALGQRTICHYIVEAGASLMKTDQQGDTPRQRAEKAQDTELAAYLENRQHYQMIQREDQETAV

Consider `CCn1c(CC#N)nc2c(N3C[C@@H](C)N(C(C)c4cccc(C(F)(F)F)c4)C[C@@H]3C)nc(=O)n(C)c21` (single isomer, unassigned) [Compound A42a], for which the IC50 in assay [1] was 24 nM; in assay [2] it was 78.7 µM.

`CCn1c(CC#N)nc2c(N3C[C@@H](C)N(C(C)c4cccc5c4OC(F)(F)O5)C[C@@H]3C)nc(=O)n(C)c21` (stereo partly drawn) [Compound A187, 2-(6-((2S,5R)-4-(1-(2,2-difluorobenzo[d][1,3]dioxol-4-yl)ethyl)-2,5-dimethylpiperazin-1-yl)-9-ethyl-3-methyl-2-oxo-3,9-dihydro-2H-purin-8-yl)acetonitrile]: the IC50 in assay [1] was 407 nM; in assay [2] it was 115 µM.

`CC[C@@H]1CN(c2nc(=O)n(C)c3c2nc(CC#N)n3CC)[C@@H](C)CN1C(C)c1ccc2c(n1)OC(C)(C)CO2` (single isomer, unassigned) [Compound A158b]: the IC50 in assay [1] was 407 nM; in assay [2], above 150 µM.

With `CCn1c(CC#N)nc2c(N3C[C@@H](C)N(C(C)c4cc(F)c5c(c4)OC(C)(C)O5)C[C@@H]3C)nc(=O)n(C)c21` (single isomer, unassigned) [Compound A173b], the half-maximal inhibitory concentration (IC50) was 412 nM in assay [1] and 83.3 µM in assay [2].

On to `CCn1c(CC#N)nc2c(N3C[C@@H](C)N(C(C)c4ccc5c(c4)OC(C)(C)O5)C[C@@H]3C)c(F)c(=O)n(C)c21` (stereo partly drawn) [Compound A188, 2-(7-((2S,5R)-4-(1-(2,2-dimethylbenzo[d][1,3]dioxol-5-yl)ethyl)-2,5-dimethylpiperazin-1-yl)-3-ethyl-6-fluoro-4-methyl-5-oxo-4,5-dihydro-3H-imidazo[4,5-b]pyridin-2-yl)acetonitrile], for which the IC50 in assay [1] is 74 nM; in assay [2], above 150 µM.

As for `CCn1c(CC#N)nc2c(N3C[C@@H](C)N(C(C)c4ccc5c(c4)c(=O)c(C)cn5C)C[C@@H]3C)nc(=O)n(C)c21` (stereo partly drawn) [Compound A193, 2-(6-((2S,5R)-4-(1-(1,3-dimethyl-4-oxo-1,4-dihydroquinolin-6-yl)ethyl)-2,5-dimethylpiperazin-1-yl)-9-ethyl-3-methyl-2-oxo-3,4,5,9-tetrahydro-2H-purin-8-yl)acetonitrile], the IC50 is above 10000 nM in assay [1] and above 150 µM in assay [2].

For `Cc1ccc(C(C)N2C[C@H](C)N(c3cc(=O)n(C)c4c3nc(CC#N)n4C)C[C@H]2C)cc1` (single isomer, unassigned) [Compound A5b], the values for the IC50 in assay [1] and in assay [2] were 88 nM and 0.616 µM, respectively.

Take `CC(c1cc(F)c2c(c1)OC(C)(C)CO2)N1C[C@H](C)N(c2nc(=O)n(C)c3c2nc(CC#N)n3C)C[C@H]1C` (single isomer, unassigned) [Compound A68a]: the values for the half-maximal inhibitory concentration (IC50) in assay [1] and in assay [2] were 2 nM and 20.3 µM, respectively.

Take `CCn1c(CC#N)nc2c(N3C[C@@H](C)N(C(C)c4c(F)cc5c(c4F)OC(C)(C)O5)C[C@@H]3C)nc(=O)n(C)c21` (single isomer, unassigned) [Compound A176a]: the figures for the IC50 in assay [1] and in assay [2] were 40 nM and 13.1 µM, respectively.

For `CC(c1ccc2c(c1)OC(C)(C)CO2)N1C[C@H](C)N(c2nc(=O)n(C)c3c2nc(CC#N)n3CC(F)F)C[C@H]1C` (stereo partly drawn) [Compound A87, 2-(9-(2,2-difluoroethyl)-6-((2S,5R)-4-(1-(3,3-dimethyl-2,3-dihydrobenzo[b][1,4]dioxin-6-yl)ethyl)-2,5-dimethylpiperazin-1-yl)-3-methyl-2-oxo-3,9-dihydro-2H-purin-8-yl)acetonitrile], the results for the IC50 in assay [1] and in assay [2] were 2 nM and 21.9 µM, respectively.

For the compound `CCn1c(CC#N)nc2c(N3C[C@@H](C)N(C(C)c4cccc(C(F)(F)F)c4)C[C@@H]3C)nc(=O)n(C)c21` (single isomer, unassigned) [Compound A42b], the 50% inhibitory concentration (IC50) in assay [1] stood at 285 nM; in assay [2], 118 µM.

Turning to `COc1cc(F)ccc1C(C)N1C[C@H](C)N(c2cc(=O)n(C)c3c2nc(CC#N)n3C)C[C@H]1C` (single isomer, unassigned) [Compound A4a], the IC50 was 566 nM in assay [1] and above 10 µM in assay [2].

On to `CCc1nc2cc(C(C)N3C[C@H](C)N(c4nc(=O)n(C)c5c4nc(CC#N)n5CC)C[C@H]3C)ccc2s1` (single isomer, unassigned) [Compound A95a], for which the 50% inhibitory concentration (IC50) in assay [1] turned out to be 11 nM; in assay [2], 24.7 µM.

With `Cc1ccc(C(C)N2C[C@H](C)N(c3nc(=O)n(C)c4c3nc(CC#N)n4C)C[C@H]2C)c(C(F)(F)F)c1` (single isomer, unassigned) [Compound A32b], the figures for the half-inhibitory concentration (IC50) in assay [1] and in assay [2] were 138 nM and 5.59 µM, respectively.

On to `CC[C@@H]1CN(c2nc(=O)n(C)c3c2nc(CC#N)n3C)[C@@H](C)CN1C(C)c1ccc2c(n1)OC(C)(C)CO2` (single isomer, unassigned) [Compound A159a], for which the half-inhibitory concentration (IC50) in assay [1] is 25 nM; in assay [2] it was 27.4 µM.

Regarding `CCn1c(CC#N)nc2c(N3C[C@@H](C)N(C(C)c4ccc5c(c4)OC(C)(CC)O5)C[C@@H]3C)nc(=O)n(C)c21` (stereo partly drawn) [Compound A168, 2-(9-ethyl-6-((2S,5R)-4-(1-(2-ethyl-2-methylbenzo[d][1,3]dioxol-5-yl)ethyl)-2,5-dimethylpiperazin-1-yl)-3-methyl-2-oxo-3,9-dihydro-2H-purin-8-yl)acetonitrile], the concentration for half-maximal inhibition (IC50) in assay [1] is 26 nM; in assay [2], 64.3 µM.

`CCn1c(=O)nc(N2C[C@@H](C)N(C(C)c3ccc4ncc(C)nc4c3)C[C@@H]2C)c2nc(CC#N)n(C)c21` (single isomer, unassigned) [Compound A53b]: the IC50 was 662 nM in assay [1] and above 150 µM in assay [2].

For the compound `CCn1c(CC#N)nc2c(N3C[C@@H](C)N(C(C)c4cccc(OC)c4)C[C@@H]3C)nc(=O)n(C)c21` (stereo partly drawn) [Compound A46, 2-(9-ethyl-6-((2S,5R)-4-(1-(3-methoxyphenyl)ethyl)-2,5-dimethylpiperazin-1-yl)-3-methyl-2-oxo-3,9-dihydro-2H-purin-8-yl)acetonitrile], the IC50 in assay [1] was 301 nM; in assay [2] it was above 150 µM.

For `CCn1c(CC#N)nc2c(N3C[C@@H](C)N(C(C)c4ccc5c(c4)OC4(CCC4)O5)C[C@@H]3C)nc(=O)n(C)c21` (single isomer, unassigned) [Compound A169a], the values for the half-maximal inhibitory concentration (IC50) in assay [1] and in assay [2] were 10 nM and 31.7 µM, respectively.

In the case of `CCn1c(CC#N)nc2c(N3C[C@@H](C)N(C(C)c4ccc5sc(C(C)C)nc5c4)C[C@@H]3C)nc(=O)n(C)c21` (stereo partly drawn) [Compound A96, 2-(9-ethyl-6-((2S,5R)-4-(1-(2-isopropylbenzo[d]thiazol-5-yl)ethyl)-2,5-dimethylpiperazin-1-yl)-3-methyl-2-oxo-3,9-dihydro-2H-purin-8-yl)acetonitrile], the concentration for half-maximal inhibition (IC50) was 63 nM in assay [1] and 49.6 µM in assay [2].

As for `CCn1c(CC#N)nc2c(N3C[C@@H](C)N(C(C)c4ccc5c(c4)OC4(CCC4)O5)C[C@@H]3C)nc(=O)n(C)c21` (single isomer, unassigned) [Compound A169b], the half-inhibitory concentration (IC50) was found to be 455 nM in assay [1] and 78.2 µM in assay [2].

For the compound `CC(c1ccc(F)cc1C(F)(F)F)N1C[C@H](C)N(c2nc(=O)n(C)c3c2nc(CC#N)n3C)C[C@H]1C` (single isomer, unassigned) [Compound A33b], the half-inhibitory concentration (IC50) in assay [1] was 3 nM; in assay [2], above 10 µM.

With `CCn1c(CC#N)nc2c(N3C[C@@H](C)N(C(C)c4ccnc(C(C)(C)C)c4)C[C@@H]3C)nc(=O)n(C)c21` (stereo partly drawn) [Compound A129, 2-(6-((2S,5R)-4-(1-(2-(tert-butyl)pyridin-4-yl)ethyl)-2,5-dimethylpiperazin-1-yl)-9-ethyl-3-methyl-2-oxo-3,9-dihydro-2H-purin-8-yl)acetonitrile], the concentration for half-maximal inhibition (IC50) was 4 nM in assay [1] and above 150 µM in assay [2].

For `CCn1c(CC#N)nc2c(N3C[C@@H](C)N(C(C)c4cc(F)c5c(c4)OC(C)(C)O5)C[C@@H]3C)c(F)c(=O)n(C)c21` (stereo partly drawn) [Compound A189, 2-(3-ethyl-6-fluoro-7-((2S,5R)-4-(1-(7-fluoro-2,2-dimethylbenzo[d][1,3]dioxol-5-yl)ethyl)-2,5-dimethylpiperazin-1-yl)-4-methyl-5-oxo-4,5-dihydro-3H-imidazo[4,5-b]pyridin-2-yl)acetonitrile], the IC50 in assay [1] was 34 nM; in assay [2], above 150 µM.

Take `CCn1c(CC#N)nc2c(N3C[C@@H](C)N(C(C)c4ccc5c(c4)OC(F)(F)CO5)C[C@@H]3C)nc(=O)n(C)c21` (single isomer, unassigned) [Compound A80b]: the results for the 50% inhibitory concentration (IC50) in assay [1] and in assay [2] were 664 nM and above 150 µM, respectively.

With `CCn1c(CC#N)nc2c(N3C[C@@H](C)N(C(C)c4ccc5c(c4)OC(C)(C)CO5)C[C@@H]3C)nc(=O)n(CC)c21` (stereo partly drawn) [Compound A62, 2-(6-((2S,5R)-4-(1-(3,3-dimethyl-2,3-dihydrobenzo[b][1,4]dioxin-6-yl)ethyl)-2,5-dimethylpiperazin-1-yl)-3,9-diethyl-2-oxo-3,9-dihydro-2H-purin-8-yl)acetonitrile], the half-inhibitory concentration (IC50) was 279 nM in assay [1] and above 150 µM in assay [2].

In the case of `CCn1c(CC#N)nc2c(N3C[C@@H](C)N(C(C)c4ccc5c(c4)C(C)(C)CO5)C[C@@H]3C)nc(=O)n(C)c21` (stereo partly drawn) [Compound A183, 2-(6-((2S,5R)-4-(1-(3,3-dimethyl-2,3-dihydrobenzofuran-5-yl)ethyl)-2,5-dimethylpiperazin-1-yl)-9-ethyl-3-methyl-2-oxo-3,9-dihydro-2H-purin-8-yl)acetonitrile], the figures for the IC50 in assay [1] and in assay [2] were 4 nM and above 150 µM, respectively.

Regarding `CCn1c(CC#N)nc2c(N3C[C@@H](C)N(C(C)c4cc(F)c5c(n4)OC(C)(C)CO5)C[C@@H]3C)nc(=O)n(C)c21` (single isomer, unassigned) [Compound A163a], the half-inhibitory concentration (IC50) was 13 nM in assay [1] and above 150 µM in assay [2].

One may read the IC50 as the concentration needed to halve the response being measured. Lower therefore signals inhibition by little substance.
